# Laboratory results as given in publication PMC7617869, “Molecular glues that inhibit deubiquitylase activity and inflammatory signaling” (Nature Structural & Molecular Biology, 2025).
# Values joined by “and” are separate entries in the source; they are usually repeats but may differ in a detail not shown here. Identical values can stand only once. Like-named read-outs stand apart in the source and are kept apart here.
# Key:
# [1] = test system: ISG expression in MCF10A Cas9 cells expressing BRCC45 R137A; assay: MCF10A BRCC45 R137A ISG expression (RT–qPCR); assay type: cell-based, human; parameters: scale not given here; details: BRCC45 KO+ BRCC45 R137A; replicate values
# Protocol: Supplementary Protocols 1. Experimental procedures for cell biology experiments. […]
# Media supplements including human insulin solution (Santa Cruz Biotechnology, #sc-360248), cholera toxin from vibrio (Sigma Aldrich, #C8052-2MG), recombinant human EGF (PeproTech, #AF-100-15-100µg), hydrocortisone (Sigma-Aldrich, #H-0888) were used to grow MCF10A cells. The 4–12% Bis-Tris SDS-PAGE gels, cell culture media, horse serum and other materials for tissue culture were purchased from Invitrogen. LipoD293 (SigmaGen, #SL100668) was used for all the transfections to generate knock out cell lines.
# Immortalised breast epithelial cell line MCF10A were cultured in 10 cm plates with Dulbecco’s Modified Eagle Medium (DMEM) + F-12 (1:1) supplemented with 5% horse serum, 100 ng/mL cholera toxin, 10 […]
# Real-time quantitative PCR
# 1x10^5 MCF10A cells were cultured as described above and seeded into 6 well plates. Cells were left to reach ultra-confluence. Once confluent, cells were washed with PBS and starved for 30 minutes in 2 mL DMEM + F-12 (1:1) supplemented with 1% horse serum. After 30 minutes cells were pre-treated with either DMSO (0.1%) (Control and IFN only) or BRISC inhibitor (2.5 µM) for 15 minutes. After 15 minutes, hIFN2α (75 ng/mL) was added to the media and mixed. Cells were treated for 4 hours. Cells were washed with ice cold PBS and scraped with cell scrapers into 350 µL RNAlater buffer and RNA […]
# #79254). Isolated RNA was quantified using a Nanodrop spectrophotometer. RNA was converted into cDNA and the complementary DNA was used for real-time quantitative PCR analysis of expression of interferon stimulated genes (ISG15, IFIT1, IFIT2, IFITM1, CXCL10 and RNA18S) using an Applied Biosystems Quantstudio 6 RT-PCR system. All experiments were carried out in triplicate.
# BRISC = biological target: T1, BRISC (Homo sapiens, UniProt P46736+Q15018+Q9NXR7); assay: BRISC DUB activity assay (IQF K63-linked diubiquitin); assay type: biochemical
# T1 construct: made in house; host or cells: Spodoptera frugiperda (Sf9) insect cells, MultiBac
# Procedure, shortened: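 Enzyme at 1 nM (BRISC WT or mutant) hydrolysed 50 nM IQF K63 diubiquitin in 50 mM HEPES–NaOH pH 7.0, 100 mM NaCl buffer at 30 °C. Kinetic fluorescence at 544/575 nm gave V0 over 30 min. Dose–response curves were fitted with variable slope to give IC50.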
smiles,measurement,setting,value
O=C(NC1C2CNCC21)c1nn(C(=O)c2c(Cl)cccc2Cl)cc1NC(=O)c1c(Cl)cccc1Cl (stereo not shown) [FX-171-C],ISG expression (Fig. 5b),[1],1.886 and 0.9791 and 0.9889 and 0.9654 and 2.3346
same,ISG expression (Fig. 5c),[1],1.805 and 0.9044 and 1.045 and 1.083 and 2.1
same,ISG expression (Fig. 5e),[1],1.992 and 0.8788 and 0.9319 and 1.019 and 2.187
same,ISG expression (Fig. 5f),[1],1.937 and 0.8462 and 0.8933 and 0.87 and 0.6063
same,ISG expression (Fig. 5d),[1],2.039 and 1.092 and 1.112 and 1.2514 and 2.244
same,IC50,"BRISC; 32-point dose-response, biphasic fit, read-out: IC50(1), biphasic curve",7.2 µM
same,IC50,"BRISC; 32-point dose-response, biphasic fit, read-out: IC50(2), biphasic curve",0.149 µM
same,remaining activity at 0.35 µM,"BRISC; BRISC WT, FX-171-C 0.35 μM, read-out: Normalised V0",54.2%
same,remaining activity at 6.25 µM,"BRISC; BRISC WT, FX-171-C 6.25 μM, read-out: Normalised V0",13%
same,IC50,"BRISC; FX-171-C IC50, BRISC WT, mutant panel (Extended Data Fig. 7c)",0.6 µM
same,Normalised V0,"BRISC; Fig. 1g, BRISC, FX-171-C 0.0599997 μM",1.019
same,Normalised V0,"BRISC; Fig. 1g, BRISC, FX-171-C 0.0799994 μM",0.9329 and 1.215 and 0.984
same,Normalised V0,"BRISC; Fig. 1g, BRISC, FX-171-C 0.119998 μM",0.8991 and 1.297 and 1.1131
same,Normalised V0,"BRISC; Fig. 1g, BRISC, FX-171-C 0.199996 μM",0.9109 and 1.1 and 0.9714
same,Normalised V0,"BRISC; Fig. 1g, BRISC, FX-171-C 0.499975 μM",0.8337 and 0.8541 and 0.839
same,Normalised V0,"BRISC; Fig. 1g, BRISC, FX-171-C 0.799936 μM",0.8201 and 0.7671 and 0.7222
same,Normalised V0,"BRISC; Fig. 1g, BRISC, FX-171-C 1.25984 μM",0.7744 and 0.5965 and 0.5179
same,Normalised V0,"BRISC; Fig. 1g, BRISC, FX-171-C 1.9996 μM",0.7381 and 0.4197 and 0.4126
same,Normalised V0,"BRISC; Fig. 1g, BRISC, FX-171-C 3.159 μM",0.4028 and 0.2971 and 0.3289
same,Normalised V0,"BRISC; Fig. 1g, BRISC, FX-171-C 5.19739 μM",0.6152 and 0.3188 and 0.3118
same,remaining activity at 0.0599997 µM,"BRISC; HsBRISC, FX-171-C 0.0599997 μM, read-out: Normalised V0",102%
same,remaining activity at 0.199996 µM,"BRISC; HsBRISC, FX-171-C 0.199996 μM, read-out: Normalised V0",91.1%
same,remaining activity at 0.499975 µM,"BRISC; HsBRISC, FX-171-C 0.499975 μM, read-out: Normalised V0",83.4%
same,remaining activity at 0.799937 µM,"BRISC; HsBRISC, FX-171-C 0.799937 μM, read-out: Normalised V0",82%
same,remaining activity at 3.159 µM,"BRISC; HsBRISC, FX-171-C 3.159 μM, read-out: Normalised V0",40.3%
same,remaining activity at 19.96 µM,"BRISC; HsBRISC, FX-171-C 19.96 μM, read-out: Normalised V0",18.8%
same,remaining activity at 31.4999 µM,"BRISC; HsBRISC, FX-171-C 31.4999 μM, read-out: Normalised V0",18.9%
same,remaining activity at 79.7601 µM,"BRISC; HsBRISC, FX-171-C 79.7601 μM, read-out: Normalised V0",22.3%
same,remaining activity at 125.99 µM,"BRISC; HsBRISC, FX-171-C 125.99 μM, read-out: Normalised V0",16.2%
same,IC50,"BRISC; IQF K63-linked diubiquitin substrate, read-out: IC50, inhibition of BRISC DUB activity",1.4 µM
same,Normalised V0,"BRISC; [Inhibitor] 0.013 μM, replicate columns",0.9661 and 1.259 and 1.028 and 1.106 and 0.9509 and 0.8874
same,Normalised V0,"BRISC; [Inhibitor] 0.02 μM, replicate columns",0.8164 and 1.359 and 1.027
same,Normalised V0,"BRISC; [Inhibitor] 0.0399999 μM, replicate columns",0.8327 and 1.212 and 1.032
same,Normalised V0,"BRISC; [Inhibitor] 0.0599997 μM, replicate columns",1.019 and 1.179 and 1.007
same,Normalised V0,"BRISC; [Inhibitor] 0.0799994 μM, replicate columns",0.9329 and 1.215 and 0.984
same,Normalised V0,"BRISC; [Inhibitor] 0.119998 μM, replicate columns",0.8991 and 1.297 and 1.1131
same,Normalised V0,"BRISC; [Inhibitor] 0.199996 μM, replicate columns",0.9109 and 1.1 and 0.9714
same,Normalised V0,"BRISC; [Inhibitor] 0.499975 μM, replicate columns",0.8337 and 0.8541 and 0.839
same,Normalised V0,"BRISC; [Inhibitor] 0.799936 μM, replicate columns",0.8201 and 0.7671 and 0.7222
same,Normalised V0,"BRISC; [Inhibitor] 1.25984 μM, replicate columns",0.7744 and 0.5965 and 0.5179
same,Normalised V0,"BRISC; [Inhibitor] 1.9996 μM, replicate columns",0.7381 and 0.4197 and 0.4126
same,Normalised V0,"BRISC; [Inhibitor] 3.159 μM, replicate columns",0.4028 and 0.2971 and 0.3289
same,Normalised V0,"BRISC; [Inhibitor] 5.19739 μM, replicate columns",0.6152 and 0.3188 and 0.3118
same,Normalised V0,"BRISC; [Inhibitor] 7.99364 μM, replicate columns",0.4919 and 0.2336 and 0.2963
same,Normalised V0,"BRISC; [Inhibitor] 12.7839 μM, replicate columns",0.5596 and 0.3112 and 0.2492
same,Normalised V0,"BRISC; [Inhibitor] 19.96 μM, replicate columns",0.1876 and 0.174 and 0.161
same,Normalised V0,"BRISC; [Inhibitor] 31.4999 μM, replicate columns",0.1887 and 0.2421 and 0.2131
same,Normalised V0,"BRISC; [Inhibitor] 50.147 μM, replicate columns",0.05691 and 0.1395 and 0.2567
same,Normalised V0,"BRISC; [Inhibitor] 79.7601 μM, replicate columns",0.2227 and 0.2164 and 0.1439
same,Normalised V0,"BRISC; [Inhibitor] 125.99 μM, replicate columns",0.1622 and 0.2082 and 0.2077
same,Normalised V0,"BRISC; [Inhibitor] 199.922 μM, replicate columns",0.03119 and 0.1486 and 0.1232
same,potency ranking over BRISC orthologs,BRISC; human vs mouse and zebrafish BRISC,highest potency toward human BRISC over mouse and zebrafish BRISC
same,Normalised velocity (V0),BRISC; inhibitor 0.000794328 μM,1
same,Normalised velocity (V0),BRISC; inhibitor 0.00125892 μM,0.9709 and 1.087
same,Normalised velocity (V0),BRISC; inhibitor 0.00199526 μM,0.9893 and 1.074
same,Normalised velocity (V0),BRISC; inhibitor 0.00316228 μM,1.07 and 1.182
same,Normalised velocity (V0),BRISC; inhibitor 0.00501187 μM,1.042 and 1.106
same,Normalised velocity (V0),BRISC; inhibitor 0.00794328 μM,1.04 and 1.13
same,Normalised velocity (V0),BRISC; inhibitor 0.0125893 μM,0.9855 and 1.097
same,Normalised velocity (V0),BRISC; inhibitor 0.0199526 μM,1.04 and 1.062
same,Normalised velocity (V0),BRISC; inhibitor 0.0316228 μM,0.9173 and 1.065
same,Normalised velocity (V0),BRISC; inhibitor 0.0501187 μM,0.915 and 1.002
same,Normalised velocity (V0),BRISC; inhibitor 0.0794328 μM,0.8247 and 0.8903
same,Normalised velocity (V0),BRISC; inhibitor 0.125893 μM,0.6057 and 0.745
same,Normalised velocity (V0),BRISC; inhibitor 0.199526 μM,0.5727 and 0.6444
same,Normalised velocity (V0),BRISC; inhibitor 0.316228 μM,0.4326 and 0.4719
same,Normalised velocity (V0),BRISC; inhibitor 0.398107 μM,0.425 and 0.486
same,Normalised velocity (V0),BRISC; inhibitor 0.630957 μM,0.3369 and 0.3696
same,Normalised velocity (V0),BRISC; inhibitor 1 μM,0.2871 and 0.3028
same,Normalised velocity (V0),BRISC; inhibitor 1.58489 μM,0.2427 and 0.2962
same,Normalised velocity (V0),BRISC; inhibitor 2.51189 μM,0.2711 and 0.2368
same,Normalised velocity (V0),BRISC; inhibitor 3.98107 μM,0.2213 and 0.2236
same,Normalised velocity (V0),BRISC; inhibitor 6.30957 μM,0.121 and 0.1898
same,Normalised velocity (V0),BRISC; inhibitor 10 μM,0.08882 and 0.07343
same,Normalised velocity (V0),BRISC; inhibitor 15.8489 μM,0.08806 and 0.08498
same,Normalised velocity (V0),BRISC; inhibitor 25.1189 μM,0
same,Normalised velocity (V0),BRISC; inhibitor 39.8107 μM,0
same,Normalised velocity (V0),BRISC; inhibitor 63.0957 μM,0
same,Normalised velocity (V0),BRISC; inhibitor 100 μM,0
